Entries after “also recorded” stand apart in the source; their conditions may differ.
Key:
rats [1] = test: Overall behavior and reactivities in rats; assay type: in vivo, rat; details: dose not stated
Method: (§1) In the neuropsychopharmacological study which follows, a solution of CRL 41 153 in distilled water (pH 1.5) was administered intraperitoneally in a volume of 20 ml/kg to male mice and 5 ml/kg to male rats.
(§2) Groups of three animals are observed before and then 0.25 hour, 0.50 hour, 1 hour, 2 hours, 3 hours and 24 hours after the administration of CRL 41 153.

CNS [2] = test: Neuropsychopharmacological profile as a whole; assay type: in vivo, mice and rats; details: for Peripheral α-adrenergic signs (mydriasis, salivation, lacrimation, exophthalmos): species and dose not stated
Method: as §1

mice [3] = test: Particular toxicity in grouped mice; details: mice
Method: The number of dead animals is noted after 1 hour, 2 hours, 3 hours, 4 hours and 24 hours.

mice [4] = test: Interaction with apomorphine in mice; assay type: in vivo, mouse; details: i.p.
Method: Groups of 6 mice receive CRL 41 153 0.5 hour before the subcutaneous injection of 1 or 16 mg/kg of apomorphine.

mice [5] = test: Spontaneous motility; assay type: in vivo, mouse; details: i.p.
Method: 0.5 hour after they have received CRL 41 153, the mice (6 per dose, 12 control animals) are placed in an actimeter, where their motility is recorded for 30 minutes.

CNS [6] = test: Complementary tests by oral (gastric) administration; assay type: in vivo; details: gastric vs i.p.
rats [7] = test: Interaction with amphetamine; assay type: in vivo, rat; details: i.p.
Method: Amphetamine (2 mg/kg) is injected intraperitoneally into groups of 6 rats 30 minutes after the administration of CRL 41 153. […] 4 mg/kg and 16 mg/kg, CRL 41 153 potentiates the intensity and duration of the stereotypies induced by amphetamine.

mice [8] = test: Motility reduced by habituation to the enclosure; assay type: in vivo, mouse; details: i.p.
Method: After they have stayed In the actimeters for 18 hours, (he mice (6 per dose, 12 control animals) receive CRL 41 153. They are immediately returned to their respective enclosures and, half an hour later, their motility is recorded for 30 minutes.

mice [9] = test: Overall behavior and reactivities in mice; assay type: in vivo, mouse; details: dose not stated
Method: as §1, §2

mice [10] = test: Interaction with barbital; assay type: in vivo, mouse; details: i.p., barbital 220 mg/kg
Method: Half an hour after the administration of CRL 41 153, groups of 10 mice receive an intraperitoneal injection of barbital (220 mg/kg).

mice [11] = test: Motility reduced by hypoxic aggression; assay type: in vivo, mouse; details: i.p.
Method: Half an hour after they have received CRL 41 153, the mice (10 per dose, 20 control animals) are subjected to acute hypobaric anoxia [pressure reduction of 600 mm Hg (i.e. about 8×10^4 Pa) in 90 seconds; release of vacuum in 45 seconds] and are then placed in an actimeter, where their motility is recorded for 10 minutes.

mice [12] = test: Behavioral despair; assay type: in vivo, mouse; details: forcibly immersed mice, i.p.
From the text: Half an hour after they have received CRL 41 153, groups of 6 mice are placed in a beaker filled with water to a height of 6 cm. The total period of immobility between the 2nd and 6th minutes following immersion is noted.

[13] = tested on: gravid White New Zealand female rabbits; test: Teratogenicity in gravid White New Zealand rabbits; assay type: in vivo, rabbit; details: day 5 to day 18 of gestation; for Affected foetuses, %: normal limit 1.5%
Method in brief: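 Fetuses harvested by cesarean on gestation day 29 were scored for number and for any malformation (limb blockade, anury, tail or skull defects, exencephaly).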

mice [14] = test: Interaction with oxotremorine; assay type: in vivo, mouse; details: i.p.
Method: CRL 41 153 is administered to groups of 6 mice 0.5 hour before the intraperitoneal injection of 0.5 mg/kg of oxotremorine.

mice [15] = test: Interaction with reserpine; assay type: in vivo, mouse; details: i.p.
Method: Four hours after the intraperitoneal injection of 2.5 mg/kg of reserpine, groups of 6 mice receive CRL 41 153.

rats [16] = test: Interaction with apomorphine in rats; assay type: in vivo, rat; details: i.p.
Method: CRL 41 153 is administered to groups of 6 rats 0.5 hour before the subcutaneous injection of 0.5 mg/kg of apomorphine.

mice [17] = test: Four plate test, traction and electric shock; assay type: in vivo, mouse; details: i.p.
Method: The test is performed on groups of 10 mice 30 minutes after the administration of CRL 41 153.

[18] = tested on: nigrostriatal dopaminergic system; test: Interaction with alpha-methyltyrosine on stereotypies (difference from amphetamine); details: α-methyltyrosine (catecholamine synthesis blocked)
mice [19] = test: Asphyxiant anoxia (gallamine triiodoethylate); assay type: in vivo, mouse; details: i.p., curarizing agent
Method: Groups of 10 mice receive CRL 41 153 half an hour before the intraperitoneal administration of 32 mg/kg of gallamine triiodoethylate (reference curarizing agent).

humans = test: Clinical study: vasodilator; assay type: in vivo, human
From the text: In the treatment of diseases associated with the blood circulation through the vessels.

dogs = test: Cardiovascular study in anesthetized dogs; assay type: in vivo, dog
Method: Two dogs (average weight: 14.1 kg), anesthetized with nembutal, receive CRL 41 194 by intraduodenal administration at successive doses of 0.1 mg/kg, 0.5 mg/kg, 1 mg/kg, 2.5 mg/kg, 5 mg/kg and 10 mg/kg (in solution in physiological solvent).
The blood pressure, the heart rate, the blood flow through the femoral artery, the blood flow through the vertebral artery and the rectal temperature are measured. The coloration of the skin and the coloration of the bile, collected by catheterization of the bile duct after ligature of the cystic duct, are observed.
4 dogs (average weight: 14 kg), anesthetized with nembutal, receive CRL 41 221 by intraduodenal administration at successive doses of 0.1 mg/kg, 0.5 mg/kg, 1 mg/kg, 2.5 mg/kg, 5 mg/kg and 10 mg/kg. The blood pressure, the heart rate, the blood flow through the femoral artery, the blood flow through the vertebral artery and the rectal temperature are measured. The coloration of the skin is observed.

mice [20] = test: Intergroup aggressiveness; assay type: in vivo, mouse; details: i.p.
Method: After they have stayed for 3 weeks in the two halves of a cage divided by an opaque partition, groups of 3 mice receive CRL 41 153. Half an hour later, the two groups from the same cage are brought together by removal of the partition, and the number of fights which occur in 10 minutes is noted.

[21] = pH of solutions in distilled water; assay type: physicochemical
Method: The neuropsychopharmacological study was undertaken according to the procedures described above for CRL 41 153, CRL 41 213 being adminstered intraperitoneally, in solution in distilled water, in a volume of 20 ml/kg to male mice and a volume of 5 ml/kg to male rats, and the pH of the injected solution varying with the concentration of CRL 41 213 according to the data given in Table II below.

CC(NC(C)(C)C)C(=O)c1ccc(N)cc1 (centres unmarked) [CRL 41 178]
Overall behavior: observed effects (summary) (rats [1]): excitation and hyperreactivity in mice and rats
Stereotype movements (summary) (rats [1]): presence of stereotype movements
Anticonvulsant effects (overall) (CNS [2]; conclusion of the tests): anticonvulsant effects
Antidepressant effects (overall) (CNS [2]; conclusion of the tests): more modest antidepressant effects; also recorded: antidepressant component
Stimulant effects (overall) (CNS [2]; conclusion of the tests): distinct stimulant effects; also recorded: behaves as a stimulant as from the weakest doses
α-adrenergic stimulant effects (overall) (CNS [2]; conclusion of the tests): moderate α-adrenergic stimulant effects
Peripheral α-adrenergic signs (mydriasis, salivation, lacrimation, exophthalmos) (CNS [2]): mydriasis (with neither piloerection nor salivation)
Particular toxicity to grouped mice (mice [3]): existence of a particular toxicity to grouped mice
Effect on hypothermia induced by apomorphine (mice [4]): antagonism of the hypothermia
Spontaneous motor activity (mice [5]): increase in the motor activity
Action on gastric (oral) administration compared with intraperitoneal (CNS [6]): same types of action as after intraperitoneal administration; also recorded: the antidepressant effects are apparently developed better by oral administration than by intraperitoneal administration
Effect on stereotypies induced by amphetamine (rats [7]): potentiation of the effects of apomorphine and amphetamine in rats
Motor activity of mice accustomed to their enclosure (mice [8]): resumption in the activity of mice accustomed to their enclosure
Overall behavior: observed effects (summary) (mice [9]): excitation and hyperreactivity in mice and rats
Duration of the sleep induced by barbital (mice [10]): antagonism of the sleep induced by barbital
Motor recovery of mice after hypobaric hypoxia (mice [11]): improvement in the motor recovery of mice whose activity has been depressed following hypobaric hypoxia
Period of immobility due to despair (mice [12]): reduction in the period of immobility
Affected foetuses, number ([13]; 5 mg/kg daily): 1
Total foetuses (live) ([13]; 5 mg/kg daily): 90
Affected foetuses, % ([13]; 5 mg/kg daily): 1.11%
Affected foetuses, number ([13]; 10 mg/kg daily): 1
Total foetuses (live) ([13]; 10 mg/kg daily): 83
Affected foetuses, % ([13]; 10 mg/kg daily): 1.20%
Affected foetuses, number ([13]; 50 mg/kg daily): 1
Total foetuses (live) ([13]; 50 mg/kg daily): 92
Affected foetuses, % ([13]; 50 mg/kg daily): 1.10%
Effect on hypothermic action of oxotremorine (mice [14]): antagonism of the hypothermia
Effect on hypothermia induced by reserpine (mice [15]): antagonism of the hypothermia
Effect on ptosis induced by reserpine (mice [15]): slight antagonism of the ptosis induced by reserpine
Effect on stereotypies induced by apomorphine (rats [16]): potentiation of the effects of apomorphine and amphetamine in rats
Effect on convulsant effects of electric shock (mice [17]): at high doses, antagonism of the convulsant effects of electric shock
Effect of alpha-methyltyrosine on the stereotypies induced by the substance [18]: differs from amphetamine in the mechanism of the effects which cause stereotypies

CCNC(C)C(=O)c1ccc(N)cc1 (centres unmarked) [CRL 41 225]
Time taken for convulsions to occur (mice [19]): a decrease in the time taken for convulsions and death to occur
Time taken for death to occur (mice [19]): a decrease in the time taken for convulsions and death to occur
Overall behavior: observed effects (summary) (rats [1]): excitation with hyperreactivity in mice and rats
Stereotype movements (summary) (rats [1]): the presence of stereotype movements in mice and rats
Antidepressant effects (overall) (CNS [2]; conclusion of the tests): antidepressant and stimulant properties
Stimulant effects (overall) (CNS [2]; conclusion of the tests): antidepressant and stimulant properties
α-adrenergic stimulant effects (overall) (CNS [2]; conclusion of the tests): an α-adrenergic stimulation component
Peripheral α-adrenergic signs (mydriasis, salivation, lacrimation, exophthalmos) (CNS [2]): at strong doses, by a reduction in the mydriasis and salivation
Vasodilator in human clinical use (humans): beneficial vasodilating properties from the clinical point of view
Effect on hypothermia induced by apomorphine (mice [4]): antagonism of the hypothermia
Spontaneous motor activity (mice [5]): an increase in the spontaneous motor activity of mice
Effect on stereotypies induced by amphetamine (rats [7]): potentiation of the stereotypies
Vasodilator (conclusion) (dogs): vasodiating properties
Motor activity of mice accustomed to their enclosure (mice [8]): resumption in the motor activity of mice accustomed to their enclosure
Overall behavior: observed effects (summary) (mice [9]): excitation with hyperreactivity in mice and rats
Stereotype movements (summary) (mice [9]): the presence of stereotype movements in mice and rats
Number of fights / intergroup aggressiveness (mice [20]): at strong doses, a decrease in the number of fights
Duration of the sleep induced by barbital (mice [10]): a reduction in the duration of the sleep induced by barbital
Motor recovery of mice after hypobaric hypoxia (mice [11]): improvement in the motor recovery
Period of immobility due to despair (mice [12]): a decrease in the period of immobility
Affected foetuses, number ([13]; 5 mg/kg daily): 0
Total foetuses (live) ([13]; 5 mg/kg daily): 91
Affected foetuses, % ([13]; 5 mg/kg daily): 0%
Affected foetuses, number ([13]; 10 mg/kg daily): 0
Total foetuses (live) ([13]; 10 mg/kg daily): 95
Affected foetuses, % ([13]; 10 mg/kg daily): 0%
Effect on hypothermic action of oxotremorine (mice [14]): antagonism of the hypothermia
Effect on trembling induced by oxotremorine (mice [14]): a decrease in the intensity of the trembling caused by oxotremorine
pH ([21]; 0.1 g/liter in distilled water): 5.0
pH ([21]; 0.2 g/liter in distilled water): 4.5
pH ([21]; 0.4 g/liter in distilled water): 4.0
pH ([21]; 0.8 g/liter in distilled water): 3.5
pH ([21]; 2 g/liter in distilled water): 3.0
pH ([21]; 3 g/liter in distilled water): 2.5
pH ([21]; 13 g/liter in distilled water): 2.0
pH ([21]; 50 g/liter in distilled water): 1.5
pH ([21]; ≤0.05 g/liter in distilled water): 5.5
Effect on hypothermia induced by reserpine (mice [15]): antagonism of the hypothermia
Effect on ptosis induced by reserpine (mice [15]): a decrease in the ptosis induced by reserpine in mice
Effect on stereotypies induced by apomorphine (rats [16]): potentiation of the stereotypies
Effect on convulsant effects of electric shock (mice [17]): at strong doses, a decrease in the convulsant effects of electric shock
Number of punished passes in the four plate test (mice [17]): an increase in the number of punished passes in the 4 plate test on mice

Source: US4980377A, “1-(aminophenyl)-2-aminopropanone derivatives” (Laboratoire L. Lafon, priority 1984, dated 1990)
